Each structure is given as a SMILES string. pIC50: −log10 of the molar value.

Assay [1] has as its system Male NMRI mice. The assay can be described thus: Test 2: increase of motility of mice after intravenous administration (photocell crossings). The format is in vivo. Conditions: ED50, i.v., lowest ED50 value determined at a 20 min interval during the 360 min test period. As to the method: The compounds were also tested for their ability to increase the motility of mice following intravenous administration using the method outlined below.
Male NMRI mice are used (20 ± 2 g). The animals are housed 20-30 per cage under constant temperature (20 ± 1°C) and relative humidity (40-60%). The animals are brought into the experimental room in the afternoon, the day before they undergo testing.
The experimentally-naive, uninjected mice are acclimatized by being placed in a plexiglass box (WLH: 20 x 20 x 38 cm), four per box, for a 120 min period, and then injected with the test compound whereafter they are replaced in the plexiglass box.
The plexiglass box is equipped with a frame of photocells (spaced equidistantly) which are situated so as to detect locomotor behaviour of the animals (1 cm above the floor). The photocell chamber is housed in an sound-insulated, dimly-lit, ventilated chest. As a measure of exploratory behaviour, the number of photocell crossings in a 360 min period is detected using a minicomputer. Testing is made between 7:00 and 17.00 h.
Drugs are injected i.v. simultaneously with start of testing; N = 4/dose; 4-5 doses of test drug is given in a volume of 10 ml/kg. […]

For assay [2], the target named is T1, DA-uptake complex (Rattus norvegicus, UniProt P23977).
T1 construct: in a striatal membrane preparation; from tissue; host or cells: striatum (membrane preparation)
Kind of assay: Test 1: inhibition of 3H-GBR 12935 binding in a striatal membrane preparation.

T1 sequence (P23977 whole entry, one chain of several): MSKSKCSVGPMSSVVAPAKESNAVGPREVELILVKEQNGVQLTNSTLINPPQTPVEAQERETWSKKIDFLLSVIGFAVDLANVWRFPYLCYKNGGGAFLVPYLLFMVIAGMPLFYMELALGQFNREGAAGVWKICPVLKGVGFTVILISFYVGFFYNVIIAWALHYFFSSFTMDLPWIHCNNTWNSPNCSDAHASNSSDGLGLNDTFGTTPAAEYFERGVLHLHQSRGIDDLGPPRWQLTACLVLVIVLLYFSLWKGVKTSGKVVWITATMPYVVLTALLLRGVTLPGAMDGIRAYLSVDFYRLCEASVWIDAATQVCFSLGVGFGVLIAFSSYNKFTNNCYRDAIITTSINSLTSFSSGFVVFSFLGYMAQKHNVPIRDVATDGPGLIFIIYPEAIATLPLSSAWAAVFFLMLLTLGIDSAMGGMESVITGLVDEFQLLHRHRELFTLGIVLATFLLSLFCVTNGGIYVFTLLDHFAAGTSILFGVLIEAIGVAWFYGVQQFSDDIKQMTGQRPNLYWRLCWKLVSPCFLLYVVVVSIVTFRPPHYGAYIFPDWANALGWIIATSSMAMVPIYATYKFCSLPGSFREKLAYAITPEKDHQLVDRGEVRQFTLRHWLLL

In general, pIC50 refers to −log10 of the IC50, conventionally taken in molar units. Regarding `N#CCCCCN1CCN(CCOC(c2ccc(F)cc2)c2ccc(F)cc2)CC1` [Example 4A, 1-[2-(bis-(4-fluorophenyl)-methoxy)-ethyl]-4-(4-cyanobutyl)-piperazine], the “Test 2” value in assay [1] is on record as 2.4 mg/kg. In assay [2], this compound showed a pIC50 of 7.74. As to `Fc1ccc(C(OCCN2CCN(CCCc3ccccc3)CC2)c2ccc(F)cc2)cc1` [GBR 12909, 1-(2-(bis(4-fluorophenyl)-methoxy)-ethyl)-4-(3-phenyl-propyl) piperazine, reference compound], the “Test 2” value in assay [1] is recorded as 2.3 mg/kg.

Source of the values: patent EP0541617B1, “1,4-DISUBSTITUTED PIPERAZINES” (NOVO NORDISK A/S, priority 1990, dated 1992).
